For experiment [1], the system named is Cuphea C10-preferring acyl-ACP thioesterase (preparation from Example 9C). Nature of the experiment: Acyl-ACP hydrolysis by the Cuphea preparation from Example 9C. The class given is biochemical, Cuphea hookeriana. To be noted: 0.5µM acyl-ACP, pH 9, 30°C for 60 min; corrected for non-enzymatic hydrolysis. How it is done: As a more preferred alternative to Example 9A or 9B, forty grams of polyvinylpolypyrrolidone (PVPP) are mixed with 550 ml "extraction buffer" comprising 200 mM bis-Tris-HCl pH 6., 10mM 2-mercaptoethanol, 1% (w/v) polyvinylpyrrolidone-10. To this mixture are added 40g frozen Cuphea seeds. The mixture is then blended in a Polytron homogenizer until no intact seeds remain and the slurry is smooth. This and all subsequent steps are conducted at 0-4°C. The preparation is centrifuged at 12,000xg for 20 min and further clarified by filtration through Miracloth.
This preparation is mixed with 100ml of settled hydroxyapatite which has been equilibrated with "buffer A" (50mM bis-Tris-HCl pH 6., […] 2-mercaptoethanol). Three extract volumes of 10mM 2-mercaptoethanol are then added slowly over 30 min, with constant stirring. The hydroxyapatite gel is collected on a sintered glass funnel and rinsed with buffer A until the effluent is colorless. The collected hydroxyapatite is then transferred to a column and further rinsed with buffer A at 2ml/min until the column is packed. A 400ml elution gradient is applied (2ml/min), from buffer A to buffer B (300mM potassium phosphate pH 6.9 in buffer A). Effluent fractions are assayed for hydrolysis of 10:0-ACP. Two overlapping peaks of activity are obtained. The fractions comprising the later-eluting peak are pooled and dialyzed against buffer A.
The dialyzed material is applied at 1.3ml/min to a 2.5 x 6.5cm column of Blue 4 Agarose (Sigma Chemical Co.; St. Louis, MO) equilibrated with buffer A. The column is washed with buffer A, and enzyme activity is subsequently eluted with a 400ml gradient from buffer A to buffer C (buffer A containing 1M NaCl). The eluted fractions contain three peaks of 10:0-ACP hydrolysis activity. Those fractions comprising the second peak to elute (eluted by approximately 0.4m NaCl) are pooled and dialyzed against buffer A. […]
The preparation from Example 9C is relatively selective in its hydrolysis of acyl-ACP thioesters, as shown in the following table: (These activities were determined as follows. Twenty five µl of sample were added to 75µl assay buffer comprising 100mM glycine-KOH pH 9, 0.2% (w/v) CHAPS, 10mM 2-mercaptoethanol, and containing radiolabeled acyl-ACP for a final concentration of 0.5µM. After incubation at 30°C for 60 min, the reaction was terminated by addition of 0.5ml 10% (v/v) acetic acid, and the liberated fatty acid product was extracted with 1ml diethyl ether. Enzyme activity was measured by the radioactivity of this ether extract, determined by liquid scintillation counting. […]

Experiment [2] deals with control induced E. coli lysate. The experiment can be described thus: Acyl-ACP hydrolysis by control E. coli lysate (bay thioesterase gene in opposite orientation). The class given is biochemical. To be noted: Dilution 1/4000, one hour induction with 0.1mM IPTG. How it is done: To assay for C12 thioesterase activity the following mixture is incubated at 30° for 30 min: "buffer" comprising 7mM KH2PO4-KOH pH 8, 20% v/v glycerol, 1mM dithiothreitol (DTT), 0.1% v/v Triton X100; sample to be tested for activity in the same or similar buffer as the "extraction buffer" described in Example 2; and 5µl of ^14C-radiolabeled lauroyl-ACP substrate for a total volume of 100µl and final lauroyl-ACP concentration of 0.5µM. Lauroyl-ACP substrate is prepared according to the method of Rock et al (Methods in Enzymology (1981) 72:397-403), using ACP prepared from Escherichia coli by the method of Rock and Cronan (Methods in Enzymology (1981) 71:341-351). The laurate is radiolabeled in the carboxylate group at a specific radioactivity of 50-60µCi/µmol.
The reaction is stopped by adding 0.5ml cold (0°) 10% v/v acetic acid. The fatty acid product of the hydrolytic enzyme action is extracted away from the unhydrolyzed substrate by adding 1ml diethyl ether and mixing vigorously. After settling for a few minutes the upper ether layer is transferred to 5ml scintillation fluid for determination of radioactivity by liquid scintillation spectrometry. Additional ether extractions may be performed to recover remaining traces of the reaction product for more accurate quantitation of the enzyme activity if desired. The amount of ether-extracted radioactivity is a direct measure of C12-preferring acyl-ACP thioesterase activity, provided the amount of enzyme is not sufficient to hydrolyze more than about 25% of the substrate. With greater activity than this the relationship between radioactivity in the ether layer and the quantity of enzyme becomes markedly nonlinear. The enzyme preparation must then be diluted appropriately to bring the activity into the linear range of the assay.
The resulting construct, pCGN3823, and a control Bluescribe construct having the bay thioesterase gene inserted in the opposite orientation are transformed into E. coli. The E. coli cells are grown at 37°C in liquid medium and expression from the lac promoter is induced by addition of IPTG to a final concentration of 0.1mM IPTG. Following one hour of induction, cells are harvested, lysed and assayed as described above for the truncated bay thioesterase.

In experiment [1], 14:0-ACP came in with an Activity of 30 cpm. Further, in experiment [2], the “Hydrolysis Activity (mean cpm in ether extract)” value worked out at 0 cpm.
The like results for 16:0-ACP were, in that order, 262 cpm and 13 cpm.
For the substance decanoyl-ACP [10:0-ACP], the Activity in experiment [1] is recorded as 1010 cpm. Besides, the “Hydrolysis Activity (mean cpm in ether extract)” value in experiment [2] amounted to 0 cpm.
The like results for lauroyl-ACP [12:0-ACP] were, in that order, 393 cpm and 0 cpm.

Values taken from EP1298214A2, “Plant thioesterases” (Calgene LLC, priority 1990, dated 1991).
